Results: patent publication US20110118464A1, “HALOGENATED XANTHINE DERIVATIVES AND PRECURSORS THEREOF FOR ANTI-CANCER AND ANTI-METASTASIS ACTIVITY AND PREPARING METHOD THEREOF” (Kaohsiung Medical University, priority 2009, published 2011)

Tests used:
AR (androgen receptor) = assay: Immunoblotting of AR in LNCaP; type: cell-based, human; conditions: 100 μM, 48 hours, FIG. 10(A)
Experimental: (§1) The amount of protein is determined by Bio-Rad protein reagent. Bovine serum albumin (BSA) of 0.1 mg/ml is the protein standard in the protein assay. Distilled water of 240 μl containing various known protein standards (the amounts of protein respectively are 0, 2, 4, 8, 12, 16, 20 and 30 μg) and 60 μl of Bio-Rad reagent are mixed gently in 96-well cell culture plate. The absorbance at the wavelength of 595 nm relative to the absorbance of blank test is determined using spectrophotometer (Hitachi U-200, Japan). A standard curve is evaluated from the known amounts of the protein standards and the absorbance thereof, and the amounts of the unknown proteins can be obtained according to this standard curve.
(§2) The quantified proteins are resolved by sodium dodecyl sulfate-polyacrylamide gel electrophoresis (SDS-PAGE), and the protein expression is evaluated by immunoblotting. The dilution rate of primary antibodies (i.e. anti-AR, anti-p21, anti-p27, anti-cyclin D, anti-cdk4 and anti-cdk6) is 1000 times, and that of anti-β-actin is 5000 times. The primary antibody detects the proteins for 1 hour, and the primary antibody is detected with the horseradish peroxidase (HRP)-conjugated secondary antibody for 1 hour. Finally, the detected protein are developed with enhanced chemical luminescence.

[1] = test system: dihydrotestosterone receptor; assay: Dihydrotestosterone receptor expression in LNCaP; type: cell-based, human; conditions: 100 μM, 48 hours, FIG. 10(B)
Experimental: as §1, §2

[2] = test system: human prostate carcinoma DU145; assay: MTT assay, survival rate of DU145; conditions: various concentrations, 24 and 48 hours, FIG. 7(B)
[3] = test system: human prostate epithelial PZ-HPV-7; conditions: Liu et al., 2007; cited from earlier work
p21 protein = assay: Immunoblotting of p21 in LNCaP; type: cell-based, human
Experimental: as §1, §2

p27 protein = assay: Immunoblotting of p27 in LNCaP; type: cell-based, human
Experimental: as §1, §2

[4] = Body weight of LNCaP-xenografted rude mice; type: in vivo
[5] = test system: cGMP (3′,5′-cyclic guanosine monophosphate); assay: cGMP concentration in LNCaP cells; type: cell-based, human; conditions: for cGMP concentration: 48 hours, FIG. 9(A)
[6] = test system: human prostate carcinoma LNCaP; assay: Analysis of cell cycle in LNCaP; type: cell-based; conditions: increased concentrations, 24 and 48 hours, FIG. 8
Experimental: The counted cells (10^5 cells/ml×3 ml) are seeded in the 6-well cell culture plate for 24 hours for attaching on the bottom of the cell culture plate, then DMEM/F12 medium without fetal bovine serum (FBS) is added therein for further incubation for 24 hours. Next, the medium is replaced with DMEM/F12 supplemented with 10% FBS, and the drugs at different concentrations are respectively added therein for reacting 24 and 48 hours. The cellular inoculate is harvested, and the wells are washed with phosphate buffered saline (PBS) for twice or triplet. The cells are eluted with 0.25% trypsin-0.02% EDTA, and are collected with the original inoculate in the centrifuge tube which is centrifuged at 4° C. at 1250×g (1200 rpm) for 5 minutes. Next, the supernatant is discarded and the pellet is resuspended in 1 ml PBS and the resuspended cells are transferred to an eppendorf tube which is centrifuged once again. The supernatant is discarded, and the cells are fixed with 300 μl PBS (4° C.) and 700 μl of 99.5% ethanol (50, 50, 100, 100, 200 and 200 μl ethanol respectively and sequentially added to make the cells resuspended in the well) for 30 minutes. […] The cells are transferred into a tube, and the cells are detected using CyFlow® cytometer. The ratios of G0/G1, S and G2/M phases are determined using multicycle DNA analysis software.

[7] = test system: human prostate carcinoma LNCaP; assay: MTT assay, survival rate of LNCaP; conditions: various concentrations, 24 and 48 hours, FIG. 7(A)
Bcl-2 = Bcl-2 expression in LNCaP; type: cell-based, human; conditions: various concentrations, 48 hours, FIG. 16(B)
LNCaP prostate tumor = assay: Tumor size in LNCaP-xenografted rude mice; type: in vivo; conditions: for dose at which the significant effect is obtained: data not shown; for effect on LNCaP prostate tumor compared with the control: once per day for two months
Experimental: In addition to observe the inhibition effect of the halogenated xanthine derivatives on the cancer cell lines in the cellular level, the animal experiments are further performed. LNCaP-xenografted rude mice are injected intraperitoneally with KMUP-1 ([…]) and dosed orally with KMUP-1 (200 and 400 mg/kg) respectively once per day, and a continuity for two months. […] The significant effect can be obtained (data not shown) when KMUP-1 is 100 mg/kg. […] The significant effect can be obtained (data not shown) when KMUP-1 is 200 mg/kg.

Bax/Bcl-2 ratio = Bax/Bcl-2 ratio in LNCaP; type: cell-based, human; conditions: various concentrations, 48 hours, FIG. 16(C)
[8] = test system: cAMP (cyclic adenosine monophophate); assay: cAMP concentration in LNCaP cells; type: cell-based, human
CDK4 protein = assay: Immunoblotting of CDK4 in LNCaP; type: cell-based, human
Experimental: as §1, §2

[9] = test system: human tongue squamous cell carcinoma SCC-25; assay: MTT assay, survival rate of SCC-25; conditions: 0.1-100 μM, 24 and 48 hours, FIG. 2
p21 = conditions: Liu et al., 2007; cited from earlier work
Bax = Bax expression in LNCaP; type: cell-based, human; conditions: various concentrations, 48 hours, FIG. 16(A)
Cyclin D protein = assay: Immunoblotting of Cyclin D in LNCaP; type: cell-based, human
Experimental: as §1, §2

PZ-HPV-7 cells = conditions: Liu et al., 2007; cited from earlier work
[10] = test system: human prostate carcinoma PC-3; assay: MTT assay, survival rate of PC-3; conditions: various concentrations, 24 and 48 hours, FIG. 7(C)

Cn1c(=O)c2c(ncn2CCN2CCN(c3ccccc3Cl)CC2)n(C)c1=O [KMUP-1, 7-[2-[4-(2-chlorobenzene)piperazinyl]ethyl]-1,3-dimethylxanthine]
AR expression (AR (androgen receptor)): completely inhibited
dihydrotestosterone receptor expression [1]: relatively low
survival rate relative to the control [2]: decrease with the increased concentrations of KMUP-1
growth of PZ-HPV-7 [3]: can inhibit the growth
p21 expression at 100 μM relative to that at 1 μM (p21 protein): four times
p21 expression (p21 protein; various concentrations, 24 and 48 hours, FIG. 11): would be increased
p27 expression at 100 μM relative to that at 1 μM (p27 protein; 24 hours): twice
p27 expression (p27 protein; various concentrations, 24 and 48 hours, FIG. 12): would be increased
body weight, experimental group versus control group ([4]; dosed orally, eight weeks, FIG. 18(B)): do not have significant difference
body weight ([4]; subcutaneous injection, FIG. 17(B)): can decrease the body weight
cGMP concentration ([5]; KMUP-1 individually): increases the content of cGMP
cGMP concentration ([5]; together with 1 μM ODQ): the increased effect is not significant as KMUP-1 individually functioned on LNCaP cells
effect on cell cycle [6]: cease in G0/G1 phase and tend to sub-G1 phase
survival rate relative to the control [7]: decrease with the increased concentrations of KMUP-1
Bcl-2 expression (Bcl-2): decreases with the increased concentration of KMUP-1
LNCaP prostate tumor size (LNCaP prostate tumor; injected subcutaneously, 100 and 150 mg/kg, FIG. 17(A)): does not enlarge anymore
dose at which the significant effect is obtained (LNCaP prostate tumor; intraperitoneal injection): 100 mg/kg
effect on LNCaP prostate tumor compared with the control (LNCaP prostate tumor; intraperitoneal injection): can significantly eliminate the LNCaP prostate tumor
dose at which the significant effect is obtained (LNCaP prostate tumor; oral dosage): 200 mg/kg
effect on LNCaP prostate tumor compared with the control (LNCaP prostate tumor; oral dosage): can significantly eliminate the LNCaP prostate tumor
LNCaP prostate tumor size (LNCaP prostate tumor; orally dosed, 400 mg/kg, FIG. 18(A)): does not enlarge anymore
Bax/Bcl-2 ratio (Bax/Bcl-2 ratio): increases with the increased concentration of KMUP-1
cAMP concentration versus 100 μM KMUP-1 individually ([8]; 100 μM KMUP-1 plus 10 μM SQ22536, 48 hours): can decrease the amount of cAMP in LNCaP cells
cAMP concentration ([8]; KMUP-1 individually, 48 hours, FIG. 9(B)): increases the amount of cAMP in LNCaP cells
CDK4 expression at 100 μM relative to that at 1 μM (CDK4 protein; 48 hours): 50%
CDK4 expression (CDK4 protein; various concentrations, 24 and 48 hours, FIG. 14): would be decreased
survival rate relative to the control [9]: decreases with the increased concentrations of KMUP-1
p21 expression in PZ-HPV-7 (p21): increase p21 expression
Bax expression (Bax): has no difference with the increased concentration of KMUP-1
Cyclin D expression at 100 μM relative to that at 1 μM (Cyclin D protein; 24 hours): one ninth
Cyclin D expression at 100 μM relative to that at 1 μM (Cyclin D protein; 48 hours): 20%
Cyclin D expression (Cyclin D protein; various concentrations, 24 and 48 hours, FIG. 13): would be decreased
effect on cell cycle of PZ-HPV-7 (PZ-HPV-7 cells): cease of cell cycle at G0/G1 phase
survival rate relative to the control [10]: decrease with the increased concentrations of KMUP-1

O=c1onc2cnc3ccccc3n12 [ODQ, 1H-[1,2,4]oxadiazolo[4,3-a]quinoxalin-1-one, reference compound]
antagonism of the KMUP-1 effect on cGMP ([5]; 1 μM ODQ with KMUP-1, 48 hours): antagonists to each other

Nc1ncnc2c1ncn2C1CCCO1 (stereo not drawn) [SQ22536, reference compound]
antagonism of the KMUP-1 effect on cAMP ([8]; 10 μM SQ22536 with 100 μM KMUP-1, 48 hours): can antagonize the improved effect of KMUP-1
